{"source": "patent US20160251402A1", "about": "“MICROPEPTIDES AND USE OF SAME FOR MODULATING GENE EXPRESSION” (UNIVERSITE PAUL SABATIER TOULOUSE III, priority 2013, published 2016)", "molecules": {"B1": {"name": "MEPGFVFVLFPTHLSTQHTQREKSILVMGLNLQSAKQSDKQNSKERKKNTQINSQRIPYRQGGQCSKVLSP (peptide)", "chain": "MEPGFVFVLFPTHLSTQHTQREKSILVMGLNLQSAKQSDKQNSKERKKNTQINSQRIPYRQGGQCSKVLSP", "modifications": "Drosophila melanogaster"}}, "key": {"AtmiR319a [1]": {"system": "AtmiR319a", "assay": "Accumulation of AtmiR319a in the model plant of tobacco", "type": "in vivo, Nicotiana benthamiana", "details": "tobacco expressing AtmiR319a, overexpression of AtmiORF319a", "procedure": "(§1) At present, AtmiPEP165a and AtmiPEP319a2, identified in Arabidopsis thaliana, have already been characterized.\n(§2) The total RNA was extracted from roots of M. truncatula or from tobacco leaves using the extraction kit RNeasy Plant Mini Kit (Qiagen). The reverse transcription was performed using the reverse transcriptase SuperScript II (Invitrogen) starting from 500 ng of total RNA. Three repetitions (n=3) were carried out, each with two technical repetitions. Each experiment was repeated from two to three times. The amplifications by qPCR were carried out using a LightCycler 480 System thermocycler (Roche Diagnostics) by the method described in Lauressergues et al. (Plant J., 72(3): 512-22, 2012).\n(§3) For the miPEPs 165a and 319a, the corresponding miORFs were cloned into pBIN19 by the method described in Combier et al. (Genes & Dev, 22: 1549-1559, 2008).\n(§4) The composite plants having roots transformed with Agrobacterium rhizogenes were obtained by the method described in Boisson-Dernier et al. (Mol Plant-Microbe Interact, 18: 1269-1276, 2005). The transformed roots were verified and selected by observations of DsRED with a binocular fluorescence magnifier. The control roots correspond to roots transformed with A. rhizogenes not containing the pPEX-DsRED vector. Transformation of the tobacco leaves was carried out by the method described in Combier et al. (Genes & Dev, 22: 1549-1559, 2008)."}, "AtmiR160b": {"system": "AtmiR160b", "assay": "Relative expression of AtmiR160b in A. thaliana", "type": "in vivo, Arabidopsis thaliana", "details": "plant in which AtmiPEP160b1 is overexpressed vs control plant"}, "MtmiR171e": {"system": "MtmiR171e", "assay": "Relative expression of MtmiR171e in M. truncatula", "type": "in vivo, Medicago truncatula", "details": "plant in which MtmiPEP171e is overexpressed vs control plant", "procedure": "as §2, §4"}, "Arabidopsis thaliana": {"system": "Arabidopsis thaliana", "assay": "Plant growth of Arabidopsis thaliana after 3 weeks of watering", "type": "in vivo", "details": "watered with 0.1 μM of synthetic peptide, 3 weeks of growth, vs water"}, "AtmiR319a [2]": {"system": "AtmiR319a", "assay": "Relative expression of AtmiR319a in A. thaliana (qRT-PCR)", "type": "in vivo, Arabidopsis thaliana", "details": "plant in which AtmiPEP319a1 is overexpressed vs control plant"}, "AtmiR164a [3]": {"system": "AtmiR164a", "assay": "Northern blot of AtmiR164a in A. thaliana roots", "type": "in vivo, Arabidopsis thaliana", "details": "0.1 μM synthetic peptide dissolved in water vs water; U6 loading control", "procedure": "Northern blot analysis was carried out according to the protocol described in Lauressergues et al. Plant J., 72(3): 512-22, 2012.\nThe biological samples were homogenized in a buffer containing 0.1 M of NaCl, 2% of SDS, 50 mM of Tris-HCl (pH 9), 10 mM of EDTA (pH 8) and 20 mM of mercaptoethanol, and the RNA was extracted twice with a phenol/chloroform mixture and was precipitated with ethanol.\nThe RNA was loaded on PAGE 15% gel and transferred to a nylon membrane (HybondNX, Amersham). RNA was hybridized with a radioactive oligonucleotide probe labelled at its end, in order to detect the RNA U6 or for miR164a.\nThe hybridizations were carried out at 55° C. The hybridization signals were quantified using a phosphorimager (Fuji) and normalized with the signal of the specific probe of RNA U6."}, "AtmiR164a [4]": {"system": "AtmiR164a", "assay": "Relative expression of AtmiR164a in A. thaliana (qRT-PCR)", "type": "in vivo, Arabidopsis thaliana", "details": "plant watered once a day with peptide at 0.1 μM vs control plant"}, "AtmiR165a [5]": {"system": "AtmiR165a", "assay": "Accumulation of AtmiR165a in the model plant of tobacco", "type": "in vivo, Nicotiana benthamiana", "details": "tobacco expressing AtmiR165a, overexpression of AtmiORF165a", "procedure": "as §1, §2, §3, §4"}, "[6]": {"system": "Arabidopsis thaliana root growth", "assay": "Root growth in Arabidopsis thaliana", "type": "in vivo", "details": "plant treated with AtmiPEP165a vs control plant of the same age"}, "AtmiR165a [7]": {"system": "AtmiR165a", "assay": "Accumulation of AtmiR165a in roots of A. thaliana (relative expression)", "type": "in vivo, Arabidopsis thaliana", "details": "roots treated with 0.01, 0.1, 1 or 10 μM peptide vs water"}, "PHAVOLUTA: PHV": {"system": "PHAVOLUTA: PHV", "assay": "Expression of PHAVOLUTA (PHV) in roots of A. thaliana", "type": "in vivo, Arabidopsis thaliana", "details": "roots treated with 0.01, 0.1, 1 or 10 μM peptide vs water"}, "PHABOLUSA: PHB": {"system": "PHABOLUSA: PHB", "assay": "Expression of PHABOLUSA (PHB) in roots of A. thaliana", "type": "in vivo, Arabidopsis thaliana", "details": "roots treated with 0.01, 0.1, 1 or 10 μM peptide vs water"}, "REVOLUTA: REV": {"system": "REVOLUTA: REV", "assay": "Expression of REVOLUTA (REV) in roots of A. thaliana", "type": "in vivo, Arabidopsis thaliana", "details": "roots treated with 0.01, 0.1, 1 or 10 μM peptide vs water"}, "AtmiR165a [8]": {"system": "AtmiR165a", "assay": "Northern blot of AtmiR165a in A. thaliana roots", "type": "in vivo, Arabidopsis thaliana", "details": "0.1 μM synthetic peptide dissolved in water vs water; U6 loading control"}, "pri-miR165a [9]": {"system": "pri-miR165a", "assay": "Relative expression of pri-miR165a in A. thaliana (Col-0 and nrpb2-3)", "type": "in vivo, Arabidopsis thaliana", "text": "Moreover, to determinate the mode of action of miPEPs regarding the accumulation of their own miRs, the expression of pri-miR165a has been analysed in wildtype plants and in plants that have been transformed to overexpress miPEP165a (FIG. 35).\nMoreover, the expression of pri-miR165a has been analysed in wildtype plants (Col-0 plants) and in mutated plants having a low allele of the second large subunit of RNA polymerase II (nrpb2-3 plants). […] It appears that the miPEP operates as a transcription regulator.\nas §2"}, "pri-miR165a [10]": {"system": "pri-miR165a", "assay": "RNA stability of pri-miR165a in the presence of cordycepin", "type": "in vivo, Arabidopsis thaliana", "details": "in the presence of cordycepin (inhibitor of RNA synthesis), peptide at 10 μM", "procedure": "For each condition, two week old plants that have been cultivated vertically on solid MS medium have been transferred in 6-well plates containing 1 ml of liquid MS medium. […] Each indivual experiment has been made 3 times."}, "MtmiR169d": {"system": "MtmiR169d", "assay": "Relative expression of MtmiR169d in M. truncatula", "type": "in vivo, Medicago truncatula", "procedure": "as §2"}, "DmmiR8": {"system": "DmmiR8", "assay": "Relative expression of Pre-miR8 in transfected Drosophila melanogaster cells", "type": "cell-based", "procedure": "S2 cells are cultured in a T75 flask in 12 mL of Schneider's medium (GIBCO), containing 1% of penicillin 100 U/mL and […] (Sigma) and 10% of decomplemented foetal calf serum (30 min at 56° C.). The transient transfections are carried out using the FuGENE® HD transfection kit (Roche), according to the recommendations. Conventionally, 1.5 million S2 cells, previously seeded in 6-well plates (3 ml of medium per well), are transfected with 250 ng of total plasmid DNA. The DNA is brought into contact with the Fugene (3 μl) in 100 μl of OPTIMEM (GIBCO). After 20 minutes, the transfection reagent formed is brought into contact with the cells in the culture medium. The RNA of the cells is extracted 66 h after transfection."}}, "note": "Entries after “also recorded” stand apart in the source; their conditions may differ.", "data": [{"molecule": "MFQTLYLFIYIHTNILLLS (listed as Arabidopsis thaliana) [AtmiPEP319a2]", "values": [{"measurement": "accumulation of AtmiR319a", "setting": "AtmiR319a [1]", "value": "increase in the accumulation"}]}, {"molecule": "MFSPQ (listed as Arabidopsis thaliana) [AtmiPEP160b1]", "values": [{"measurement": "relative expression of AtmiR160b", "setting": "AtmiR160b", "value": "increase in the relative expression of AtmiR160b; also recorded: induces an accumulation of AtmiR160b"}]}, {"molecule": "MMVFGKPKKAMLVRFNPKTDLHV (listed as Medicago truncatula) [MtmiPEP171e]", "values": [{"measurement": "relative expression of MtmiR171e", "setting": "MtmiR171e", "value": "increase in the relative expression of MtmiR171e; also recorded: induces an accumulation of MtmiR171e"}]}, {"molecule": "MNIHTYHHLLFPSLVFHQSSDVPNALSLHIHTYEYIIVVIDPFRITLAFR [AtmiPEP319a1]", "values": [{"measurement": "plant growth", "setting": "Arabidopsis thaliana", "value": "increases plant growth significantly"}, {"measurement": "relative expression of AtmiR319a", "setting": "AtmiR319a [2]", "value": "increase in the accumulation of AtmiR319a; also recorded: increase in the relative expression of AtmiR319a; also recorded: increase in the accumulation of miR319a"}]}, {"molecule": "MPSWHGMVLLPYVKHTHASTHTHTHNIYGCACELVFH [AtmiPEP164a1]", "values": [{"measurement": "accumulation of AtmiR164a (Northern blot)", "setting": "AtmiR164a [3]", "value": "increase in the accumulation of miR164a"}, {"measurement": "relative expression of AtmiR164a", "setting": "AtmiR164a [4]", "value": "increase in the relative expression of AtmiR164a"}, {"measurement": "plant growth", "setting": "Arabidopsis thaliana", "value": "increases plant growth significantly"}]}, {"molecule": "MRVKLFQLRGMLSGSRIL (listed as Arabidopsis thaliana) [AtmiPEP165a]", "values": [{"measurement": "accumulation of AtmiR165a", "setting": "AtmiR165a [5]", "value": "increase in the accumulation"}, {"measurement": "root growth phenotype", "setting": "[6]", "value": "greatly accelerated root growth"}, {"measurement": "relative expression of AtmiR165a", "setting": "AtmiR165a [7]", "value": "dose-dependent effect of the accumulation of AtmiR165a"}, {"measurement": "relative expression of AtmiR165a", "setting": "AtmiR165a [7]; listed as miPEP165a", "value": "dose-dependent effect on the accumulation of miR165a"}, {"measurement": "relative expression of PHV", "setting": "PHAVOLUTA: PHV", "value": "negative regulation of its target genes"}, {"measurement": "relative expression of PHB", "setting": "PHABOLUSA: PHB", "value": "negative regulation of its target genes"}, {"measurement": "relative expression of REV", "setting": "REVOLUTA: REV", "value": "negative regulation of its target genes"}, {"measurement": "accumulation of AtmiR165a (Northern blot)", "setting": "AtmiR165a [8]", "value": "increase in the accumulation of miR165a"}, {"measurement": "relative expression of pri-miR165a", "setting": "pri-miR165a [9]; nrpb2-3 mutated plants vs wildtype (Col-0), water or peptide at 10 μM", "value": "not capable of accumulating AtmiR165a in response to AtmiPEP165a"}, {"measurement": "relative expression of pri-miR165a", "setting": "pri-miR165a [9]; nrpb2-3 mutated plants vs wildtype (Col-0), water or peptide at 10 μM, listed as miPEP165a", "value": "mutated plants do not show an increase in the accumulation of pri-miR165 in response to miPEP165a"}, {"measurement": "expression of pri-miR165a", "setting": "pri-miR165a [9]; plants that overexpress miPEP165a vs wildtype plants", "value": "enhanced"}, {"measurement": "relative expression of pri-miR165a", "setting": "pri-miR165a [9]; roots watered once a day with peptide at 10 μM vs control roots", "value": "increase in the relative expression of AtmiR165a"}, {"measurement": "stability of pri-miR165a", "setting": "pri-miR165a [10]", "value": "does not induce a better stability of pri-miR165a"}, {"measurement": "stability of pri-miR165a", "setting": "pri-miR165a [10]; listed as miPEP165a", "value": "does not operate as a RNA stabilizer, but rather as a transcription activator of pri-miR165a"}]}, {"molecule": "MVKESFMERLKVR (listed as Medicago truncatula) [MtmiPEP169d]", "values": [{"measurement": "accumulation of MtmiR169d", "setting": "MtmiR169d; overexpression of the miPEP in M. truncatula (as worded in Example 1B)", "value": "induces an accumulation of MtmiR169d"}, {"measurement": "relative expression of MtmiR169d", "setting": "MtmiR169d; plant watered once a day with peptide at 0.1 μM vs control plant", "value": "increase in the relative expression of MtmiR169d"}]}, {"molecule": "B1", "values": [{"measurement": "relative expression of Pre-miR8", "setting": "DmmiR8; cells overexpressing DmmiPEP8 vs miPEP8 with mutated start codons", "value": "increases the expression of DmmiR8"}, {"measurement": "relative expression of Pre-miR8", "setting": "DmmiR8; cells overexpressing wild-type DmmiR8 vs DmmiR8 with mutated miPEP8 start codons", "value": "increases the expression of DmmiR8"}]}]}
